Measurements as given in US8357733B2, “Processes for making silane, hydrophobated silica, silica masterbatch and rubber products” (Industrias Negromex, S.A. de C.V., priority 2008, dated 2013).

Key:
[1] = Solubility of silanes in water-isopropanol mixtures; assay type: physicochemical; conditions: for Water solubility: comparison methoxysilane vs ethoxysilane, see Table 4; for Soluble?: water-isopropanol, 96.0 % water (wt.)
Method: An aqueous solution of silane was prepared by charging to a vessel 4 grams of isopropanol, 0.7 grams of acetic acid and then 1.57 grams (4% by wt silica) of mercapto Propyl trimethoxysilane (Silquest A189). The mixture was then stirred vigorously at room temperature while 96 grams of water was slowly added. The mixture was then stirred for a further 15 minutes until the solution cleared.
The following experiments were conducted to examine the solubility of various silane coupling agents.

[2] = as above; assay type: physicochemical; conditions: for Soluble?: water-isopropanol

CCO[Si](CCCS)(OCC)OCC [MPTES, mercaptopropyltriethoxysilane]
Water solubility [1]: insoluble | Soluble? ([2]; 63.2 % water (wt.), pH 3.5-4.0): insoluble and No

CO[Si](CCCS)(OC)OC [MPTMS, mercaptopropyl trimethoxysilane]
Water solubility [1]: soluble | Soluble? ([1]; pH 3.5-4.0): soluble | Soluble? ([1]; pH 3.5-4.0, listed as MPTMS (A189)): Yes | Soluble? ([2]; 63.2 % water (wt.), pH 3.5-4.0): Yes

CCO[Si](CCCSSCCC[Si](OCC)(OCC)OCC)(OCC)OCC [TESPD, bis-(3-triethoxysilylpropyl)-disulfide]
Solubility in the water-alcohol mixture ([1]; procedure of comparative example 1A (4 grams isopropanol, 0.7 grams acetic acid, 96 grams water), high purity TESPD): not soluble | Soluble? ([2]; 22.2 % water (wt.), pH 3.8): soluble and Yes | Soluble? ([2]; 27.8 % water (wt.), pH 3.5): insoluble and No

CO[Si](CCCSSCCC[Si](OC)(OC)OC)(OC)OC [TMSPD, bis-(3-trimethoxysilylpropyl)-disulfide]
Soluble? ([1]; pH 4.1): soluble | Soluble? ([1]; pH 4.1, listed as TMSPD (Present invention)): Yes | Solubility in 70/30 water/isopropanol mixture ([2]; TMSPD prepared using the Pletka process, no unusual precautions to purify the methanol): insoluble
